According to patent publication US20220162191A1, “SMALL MOLECULE MODULATORS OF IL-17” (LEO PHARMA A/S, priority 2019, published 2022):

target: T1, human IL-17AA (Homo sapiens, UniProt Q16552); assay: IL-8 release assay in human epithelial keratinocytes adult (HEKa); assay type: cell-based; conditions: 3 ng/ml human IL-17AA + 10 ng/ml human TNFalpha, 68-72 h, IL-8 by HTRF, read-out: Rel EC50 L-8 release assay
T1 construct: host or cells: HEK (human embryonic kidney) cells
T1 sequence (Q16552 24-155) 1: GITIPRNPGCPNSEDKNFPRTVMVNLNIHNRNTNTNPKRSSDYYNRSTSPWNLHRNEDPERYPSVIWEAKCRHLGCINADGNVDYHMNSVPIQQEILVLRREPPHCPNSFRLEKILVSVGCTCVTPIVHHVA
T1 sequence (Q16552 24-155) 2: T1 sequence (Q16552 24-155) 1
In short: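 IL-8 secretion, quantified by HTRF (665/620 nm) as percent of controls, served as the readout after 68–72 h culture of HEKa cells with compound plus IL-17AA (3 ng/ml final) and TNF-alpha (10 ng/ml final). Four-parameter logistic curves gave relative IC50 and Emax.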

| Structure (SMILES) | EC50 |
| --- | --- |
| Cc1[nH]nnc1-c1ccc(NC(=O)C(Cc2cc(-c3ccc(=O)n(C(C)C)c3)ccc2Cl)NC(=O)c2ccnn2C)cc1 (stereo not shown) [Example 98, N-[1-[[2-chloro-5-(1-isopropyl-6-oxo-3-pyridyl)phenyl]methyl]-2-[4-(5-methyl-1H-triazol-4-yl)anilino]-2-oxo-ethyl]-2-methyl-pyrazole-3-carboxamide] | 0.1 to 1 µM |
| CC(C)n1cc(-c2ccc(Cl)c(CC(NC(=O)OC(C)(C)C)C(=O)Nc3ccc(-c4cncn4C)c(Cl)c3)c2)ccc1=O (stereo not shown) [Example 101, tert-butyl N-[1-[[2-chloro-5-(1-isopropyl-6-oxo-3-pyridyl)phenyl]methyl]-2-[3-chloro-4-(3-methylimidazol-4-yl)anilino]-2-oxo-ethyl]carbamate] | > 1 µM |
| Cc1nocc1C(=O)NC(Cc1cc(-c2ccc(=O)n(C(C)C)c2)ccc1Cl)C(=O)Nc1ccc(-c2ccnn2C)c(Cl)c1 (stereo not shown) [Example 102, N-[1-[[2-chloro-5-(1-isopropyl-6-oxo-3-pyridyl)phenyl]methyl]-2-[3-chloro-4-(2-methylpyrazol-3-yl)anilino]-2-oxo-ethyl]-3-methyl-isoxazole-4-carboxamide] | 0.1 to 1 µM |
| Cc1nocc1C(=O)NC(Cc1cc(-c2ccc(=O)n(C(C)C)c2)ccc1Cl)C(=O)Nc1ccc(-c2cncn2C)c(Cl)c1 (stereo not shown) [Example 103, N-[1-[[2-chloro-5-(1-isopropyl-6-oxo-3-pyridyl)phenyl]methyl]-2-[3-chloro-4-(3-methylimidazol-4-yl)anilino]-2-oxo-ethyl]-3-methyl-isoxazole-4-carboxamide] | < 0.1 µM |
| Cc1nocc1C(=O)NC(Cc1cc(-c2cccc(C(=O)N(C)C3CC3)c2)ccc1Cl)C(=O)Nc1ccc(-c2nncn2C)cc1 (stereo not shown) [Example 107, N-[1-[[2-chloro-5-[3-[cyclopropyl(methyl)carbamoyl]phenyl]phenyl]methyl]-2-[4-(4-methyl-1,2,4-triazol-3-yl)anilino]-2-oxo-ethyl]-3-methyl-isoxazole-4-carboxamide] | 0.1 to 1 µM |
| Cn1cnnc1-c1ccc(NC(=O)C(Cc2cc(-c3cccc(C(C)(C)O)c3)ccc2Cl)NC(=O)c2ccnn2C)cc1 (stereo not shown) [Example 109, N-[1-[[2-chloro-5-[3-(1-hydroxy-1-methyl-ethyl)phenyl]phenyl]methyl]-2-[4-(4-methyl-1,2,4-triazol-3-yl)anilino]-2-oxo-ethyl]-2-methyl-pyrazole-3-carboxamide] | 0.1 to 1 µM |
| CCOc1cccc(-c2ccc(Cl)c(CC(NC(=O)c3ccnn3C)C(=O)Nc3ccc(-c4nncn4C)cc3)c2)c1 (stereo not shown) [Example 110, N-[1-[[2-chloro-5-(3-ethoxyphenyl)phenyl]methyl]-2-[4-(4-methyl-1,2,4-triazol-3-yl)anilino]-2-oxo-ethyl]-2-methyl-pyrazole-3-carboxamide] | 0.1 to 1 µM |
| Cn1cnnc1-c1ccc(NC(=O)C(Cc2cc(-c3cccc(OC(F)(F)F)c3)ccc2Cl)NC(=O)c2ccnn2C)cc1 (stereo not shown) [Example 111, N-[1-[[2-chloro-5-[3-(trifluoromethoxy)phenyl]phenyl]methyl]-2-[4-(4-methyl-1,2,4-triazol-3-yl)anilino]-2-oxo-ethyl]-2-methyl-pyrazole-3-carboxamide] | 0.1 to 1 µM |
| Cn1cnnc1-c1ccc(NC(=O)C(Cc2cc(-c3cccc(OC(F)F)c3)ccc2Cl)NC(=O)c2ccnn2C)cc1 (stereo not shown) [Example 112, N-[1-[[2-chloro-5-[3-(difluoromethoxy)phenyl]phenyl]methyl]-2-[4-(4-methyl-1,2,4-triazol-3-yl)anilino]-2-oxo-ethyl]-2-methyl-pyrazole-3-carboxamide] | 0.1 to 1 µM |
| Cc1nocc1C(=O)NC(Cc1cc(-c2cccc(C(=O)N3CCC3)c2)ccc1Cl)C(=O)Nc1ccc(-c2nncn2C)cc1 (stereo not shown) [Example 113, N-[1-[[5-[3-(azetidine-1-carbonyl)phenyl]-2-chloro-phenyl]methyl]-2-[4-(4-methyl-1,2,4-triazol-3-yl)anilino]-2-oxo-ethyl]-3-methyl-isoxazole-4-carboxamide] | > 1 µM |
| Cc1cnn(C)c1-c1ccc(NC(=O)[C@H](Cc2cc(-c3ccc(=O)n(C(C)C)c3)ccc2Cl)NC(=O)c2conc2C)cc1 [Example 118, N-[(1S)-1-[[2-chloro-5-(1-isopropyl-6-oxo-3-pyridyl)phenyl]methyl]-2-[4-(2,4-dimethylpyrazol-3-yl)anilino]-2-oxo-ethyl]-3-methyl-isoxazole-4-carboxamide] | < 0.1 µM |

More lines, now with the values ahead:

| EC50 | Structure (SMILES) |
| --- | --- |
| > 1 µM | CC(C)n1cc(-c2ccc(Cl)c(CC(NC(=O)c3conc3C(F)(F)F)C(=O)Nc3ccc(-c4nncn4C)cc3)c2)ccc1=O (stereo not shown) [Example 95, N-[1-[[2-chloro-5-(1-isopropyl-6-oxo-3-pyridyl)phenyl]methyl]-2-[4-(4-methyl-1,2,4-triazol-3-yl)anilino]-2-oxo-ethyl]-3-(trifluoromethyl)isoxazole-4-carboxamide] |
| 0.1 to 1 µM | CC(C)n1cc(-c2ccc(Cl)c(CC(NC(=O)c3conc3C(C)(C)C)C(=O)Nc3ccc(-c4nncn4C)cc3)c2)ccc1=O (stereo not shown) [Example 96, 3-tert-butyl-N-[1-[[2-chloro-5-(1-isopropyl-6-oxo-3-pyridyl)phenyl]methyl]-2-[4-(4-methyl-1,2,4-triazol-3-yl)anilino]-2-oxo-ethyl]isoxazole-4-carboxamide] |
| > 1 µM | CC(C)n1cc(-c2ccc(Cl)c(CC(NC(=O)C(F)(F)c3ccccc3)C(=O)Nc3ccc(-c4nncn4C)cc3)c2)ccc1=O (stereo not shown) [Example 97, 3-[2-chloro-5-(1-isopropyl-6-oxo-3-pyridyl)phenyl]-2-[(2,2-difluoro-2-phenyl-acetyl)amino]-N-[4-(4-methyl-1,2,4-triazol-3-yl)phenyl]propanamide] |
| > 1 µM | CC(C)OC(=O)N[C@@H](Cc1cc(-c2ccc(=O)n(C(C)C)c2)ccc1Cl)C(=O)Nc1ccc(-c2nncn2C)cc1 [Example 99, isopropyl N-[(1S)-1-[[2-chloro-5-(1-isopropyl-6-oxo-3-pyridyl)phenyl]methyl]-2-[4-(4-methyl-1,2,4-triazol-3-yl)anilino]-2-oxo-ethyl]carbamate] |
| 0.1 to 1 µM | CC(C)COC(=O)N[C@@H](Cc1cc(-c2ccc(=O)n(C(C)C)c2)ccc1Cl)C(=O)Nc1ccc(-c2nncn2C)cc1 [Example 100, isobutyl N-[(1S)-1-[[2-chloro-5-(1-isopropyl-6-oxo-3-pyridyl)phenyl]methyl]-2-[4-(4-methyl-1,2,4-triazol-3-yl)anilino]-2-oxo-ethyl]carbamate] |
| 0.1 to 1 µM | CC(C)n1cc(-c2ccc(Cl)c(C[C@H](NC(=O)C3(F)CC3)C(=O)Nc3ccc(-c4cncn4C)cc3)c2)ccc1=O [Example 104, N-[(1S)-1-[[2-chloro-5-(1-isopropyl-6-oxo-3-pyridyl)phenyl]methyl]-2-[4-(3-methylimidazol-4-yl)anilino]-2-oxo-ethyl]-1-fluoro-cyclopropanecarboxamide] |
| 0.1 to 1 µM | CC(C)n1cc(-c2ccc(Cl)c(CC(NC(=O)OC3CCC3)C(=O)Nc3ccc(-c4nncn4C)cc3)c2)ccc1=O (stereo not shown) [Example 105, cyclobutyl N-[1-[[2-chloro-5-(1-isopropyl-6-oxo-3-pyridyl)phenyl]methyl]-2-[4-(4-methyl-1,2,4-triazol-3-yl)anilino]-2-oxo-ethyl]carbamate] |
| > 1 µM | CC(C)n1cc(-c2ccc(Cl)c(CC(NC(=O)OCC3(C)CC3)C(=O)Nc3ccc(-c4nncn4C)cc3)c2)ccc1=O (stereo not shown) [Example 106, (1-methylcyclopropyl)methyl N-[1-[[2-chloro-5-(1-isopropyl-6-oxo-3-pyridyl)phenyl]methyl]-2-[4-(4-methyl-1,2,4-triazol-3-yl)anilino]-2-oxo-ethyl]carbamate] |
| 0.1 to 1 µM | CCc1cccc(-c2ccc(Cl)c(CC(NC(=O)c3ccnn3C)C(=O)Nc3ccc(-c4nncn4C)cc3)c2)c1 (stereo not shown) [Example 108, N-[1-[[2-chloro-5-(3-ethylphenyl)phenyl]methyl]-2-[4-(4-methyl-1,2,4-triazol-3-yl)anilino]-2-oxo-ethyl]-2-methyl-pyrazole-3-carboxamide] |
| 0.1 to 1 µM | Cc1nccn1-c1ccc(NC(=O)[C@H](Cc2cc(-c3ccc(=O)n(C(C)C)c3)ccc2Cl)NC(=O)C2(F)CC2)cc1 [Example 114, N-[(1S)-1-[[2-chloro-5-(1-isopropyl-6-oxo-3-pyridyl)phenyl]methyl]-2-[4-(2-methylimidazol-1-yl)anilino]-2-oxo-ethyl]-1-fluoro-cyclopropanecarboxamide] |
| > 1 µM | CC(C)CC(=O)N[C@@H](Cc1cc(-c2ccc(=O)n(C(C)C)c2)ccc1Cl)C(=O)Nc1ccc(-c2nncn2C)cc1 [Example 115, N-[(1S)-1-[[2-chloro-5-(1-isopropyl-6-oxo-3-pyridyl)phenyl]methyl]-2-[4-(4-methyl-1,2,4-triazol-3-yl)anilino]-2-oxo-ethyl]-3-methyl-butanamide] |
| > 1 µM | CC(C)n1cc(-c2ccc(Cl)c(C[C@H](NC(=O)CC3CC3)C(=O)Nc3ccc(-c4nncn4C)cc3)c2)ccc1=O [Example 116, (2S)-3-[2-chloro-5-(1-isopropyl-6-oxo-3-pyridyl)phenyl]-2-[(2-cyclopropylacetyl)amino]-N-[4-(4-methyl-1,2,4-triazol-3-yl)phenyl]propanamide] |
| > 1 µM | CC(C)n1cc(-c2ccc(Cl)c(C[C@H](NC(=O)C3(C(F)(F)F)CC3)C(=O)Nc3ccc(-c4nncn4C)cc3)c2)ccc1=O [Example 117, N-[(1S)-1-[[2-chloro-5-(1-isopropyl-6-oxo-3-pyridyl)phenyl]methyl]-2-[4-(4-methyl-1,2,4-triazol-3-yl)anilino]-2-oxo-ethyl]-1-(trifluoromethyl) cyclopropanecarboxamide] |
| 0.1 to 1 µM | Cc1cnn(C)c1-c1ccc(NC(=O)[C@H](Cc2cc(-c3ccc(=O)n(C(C)C)c3)ccc2Cl)NC(=O)C2(F)CC2)cc1 [Example 119, N-[(1S)-1-[[2-chloro-5-(1-isopropyl-6-oxo-3-pyridyl)phenyl]methyl]-2-[4-(2,4-dimethylpyrazol-3-yl)anilino]-2-oxo-ethyl]-1-fluoro-cyclopropanecarboxamide] |
